This passage reports Activity results from ChEMBL document CHEMBL4402592, “Targeting Endoplasmic Reticulum α-Glucosidase I with a Single-Dose Iminosugar Treatment Protects against Lethal Influenza and Dengue Virus Infections” (J Med Chem, 2020).

Each structure is given as a SMILES string. Activity calls are given as the source filed them. The rule behind the calls is not given here.

For the assay, the system named is Influenza A virus. In words: Antiviral activity against Influenza A virus (A/PA/10/2010 (H3N2)) infected in BALB/c mouse assessed as increase in animal survival rate at 10 mg/kg, po administered via gavage starting at 8 hrs post infection and continuing BID for 6 days. The format is functional, organism-based.

Consider `CCOC(=O)C1=C[C@@H](OC(CC)CC)[C@H](NC(C)=O)[C@@H](N)C1`, for which the outcome was Active.
